This is an account of results in patent US9840478B2 (MERCK SHARP & DOHME CORP., priority 2013, dated 2017).

Molecules are shown by their SMILES. pIC50: −log10 of the molar value.

The test has as its system HIV-1 (H9IIIB strain). As to the kind of experiment: Cell-based HIV infection assay using a reporter (Cell-Based), MT4-GFP cells. The settings on record: Human immunodeficiency virus 1, MT4-GFP cells infected with HIV-1 H9IIIB; 50% normal human serum; mean of at least two independent experiments; read-out: Cell-based IP. Summed up: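 MT4-GFP cells (HIV LTR-driven GFP) infected 24 h with HIV-1 H9IIIB at low MOI, then washed and plated with compounds in RPMI + 50% normal human serum, 0.4% DMSO final. Green cells counted at 24 and 48 h; R0 = 48 h/24 h ratio, inhibition normalized to DMSO and triple-drug control; IC50 from 4-parameter fit.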
On to `COc1ccccc1S(=O)(=O)N1[C@@H](CCc2c(F)cncc2NC(=O)[C@@H](N)[C@@H](c2ccc(F)cc2)c2cc(F)cc(F)c2)CNC[C@@H]1C` [Example 235, (βS)-β-(3,5-difluorophenyl)-4-fluoro-N-[5-fluoro-4-(2-{(2S,6S)-1-[(2-methoxyphenyl)sulfonyl]-6-methylpiperazin-2-yl}ethyl)pyridin-3-yl]-L-phenylalaninamide], for which the pIC50 was 7.64.
For `COC(=O)N[C@H](C(=O)Nc1cncc(F)c1CC[C@H]1CNCCN1S(=O)(=O)c1ccccc1)[C@@H](c1ccc(Cl)cc1)c1cc(F)cc(F)c1` [Example 57, (βS)-4-chloro-β-(3,5-difluorophenyl)-N-(5-fluoro-4-{2-[(2S)-1-(phenylsulfonyl)piperazin-2-yl]ethyl}pyridin-3-yl)-Nα-(methoxycarbonyl)-L-phenylalaninamide], the pIC50 is 8.11.
Turning to `O=C(C[C@@H](c1ccc(F)cc1)c1cc(F)cc(F)c1)Nc1cncc(F)c1CC[C@H]1CNCCN1S(=O)(=O)N1CCC(F)(F)C1` [Example 329, (3S)-3-(3,5-difluorophenyl)-N-[4-(2-{(2)S-1-[(3,3-difluoropyrrolidin-1-yl)sulfonyl]piperazin-2-yl}ethyl)-5-fluoropyridin-3-yl]-3-(4-fluorophenyl)propanamide], the pIC50 is 7.33.
Regarding `C[C@H]1CNC[C@H](CCc2c(F)cccc2NC(=O)[C@@H](N)[C@@H](c2ccc(F)cc2)c2cc(F)cc(F)c2)N1S(=O)(=O)c1ccccc1` [Example 97, (βS)-β-(3,5-difluorophenyl)-4-fluoro-N-(3-fluoro-2-{2-[(2S,6S)-6-methyl-1-(phenylsulfonyl)piperazin-2-yl]ethyl}phenyl)-L-phenylalaninamide], the pIC50 was 7.60.
Take `COC(=O)N[C@H](C(=O)Nc1cccc(F)c1CC[C@H]1CNC[C@H](C)N1S(=O)(=O)C1CC1)C(c1cccc(F)c1)c1cccc(F)c1` [Example 159, N-(2-{2-[(2S,6S)-1-(cyclopropylsulfonyl)-6-methylpiperazin-2-yl]ethyl}-3-fluorophenyl)-3-fluoro-β-(3-fluorophenyl)-Nα-(methoxycarbonyl)-L-phenylalaninamide]: the pIC50 was 7.38.
As for `COC(=O)N[C@H](C(=O)Nc1cncc(F)c1CC[C@H]1CNC[C@@H](C)N1S(=O)(=O)c1ccc(Cl)cc1)[C@@H](c1ccc(Cl)cc1)C1CCOCC1` [Example 281, (βR)-4-chloro-N-[4-(2-{(2S,6R)-1-[(4-chlorophenyl)sulfonyl]-6-methylpiperazin-2-yl}ethyl)-5-fluoropyridin-3-yl]-Nα-(methoxycarbonyl)-β-(tetrahydro-2H-pyran-4-yl)-L-phenylalaninamide], the pIC50 was 7.89.
For `C[C@H]1CNC[C@H](CCc2c(F)cccc2NC(=O)[C@@H](N)[C@@H](c2ccc(F)cc2)c2cc(F)cc(F)c2)N1S(C)(=O)=O` [Example 258, (βS)-β-(3,5-difluorophenyl)-4-fluoro-N-(3-fluoro-2-{2-[(2S,6S)-6-methyl-1-(methylsulfonyl)piperazin-2-yl]ethyl}phenyl)-L-phenylalaninamide], the pIC50 is 7.51.
With `O=C(C[C@@H](c1ccc(F)cc1)c1cc(F)cc(F)c1)Nc1cncc(F)c1CC[C@H]1CNCCN1S(=O)(=O)N1CC[C@@H](F)C1` [Example 327, (3S)-3-(3,5-difluorophenyl)-N-(5-fluoro-4-{2-[(2)S-1-{[(3R)-3-fluoropyrrolidin-1-yl]sulfonyl}piperazin-2-yl]ethyl}pyridin-3-yl)-3-(4-fluorophenyl)propanamide], the pIC50 is 8.03.
The same measure for `O=C(C[C@@H](c1ccc(F)cc1)c1cc(F)cc(F)c1)Nc1cncc(F)c1CC[C@H]1CNCCN1C(=O)CCOc1ccccc1` [Example 348, (3S)-3-(3,5-difluorophenyl)-N-(5-fluoro-4-{2-[(2S)-1-(3-phenoxypropanoyl)piper-azin-2-yl]ethyl}pyridin-3-yl)-3-(4-fluorophenyl)propanamide]: 6.72; for `C[C@H]1CNC[C@H](CCc2c(F)cccc2NC(=O)[C@@H](N)C(c2cccc(F)c2)c2cccc(F)c2)N1S(=O)(=O)c1ccccc1Cl` [Example 137, N-[2-(2-{(2S,6S)-1-[(2-chlorophenyl)sulfonyl]-6-methylpiperazin-2-yl}ethyl)-3-fluorophenyl]-3-fluoro-β-(3-fluorophenyl)-L-phenylalaninamide]: 6.62; for `COC(=O)N[C@H](C(=O)Nc1cccc(F)c1CC[C@H]1CNC[C@@H](C)N1S(=O)(=O)c1ccc(OC(F)(F)F)cc1)[C@@H](c1ccc(F)cc1)c1cc(F)cc(F)c1` [Example 248, (βS)-β-(3,5-difluorophenyl)-4-fluoro-N-(3-fluoro-2-{2-[(2S,6R)-6-methyl-1-{[4-(trifluoromethoxy)phenyl]sulfonyl}piperazin-2-yl]ethyl}phenyl)-Nα-(methoxycarbonyl)-L-phenylalaninamide]: 7.35.
As for `COC(=O)N[C@H](C(=O)Nc1cccc(F)c1CC[C@H]1CNCC(COC(C)C)N1S(C)(=O)=O)[C@H](c1cccc(F)c1)c1cccc(Cl)c1` (stereo partly drawn) [Example 222, (βR)-β-(3-chlorophenyl)-3-fluoro-N-(3-fluoro-2-{2-[(2S)-6-[(1-methylethoxy)methyl]-1-(methylsulfonyl)piperazin-2-yl]ethyl}phenyl)-Nα-(methoxycarbonyl)-L-phenylalaninamide], the pIC50 is 7.12.
Turning to `C[C@@H]1CNC[C@H](CCc2c(F)cccc2NC(=O)[C@@H](N)[C@@H](c2ccc(F)cc2)C2CCOCC2)N1S(=O)(=O)c1ccccc1` [Example 104, (βR)-4-fluoro-N-(3-fluoro-2-{2-[(2S,6R)-6-methyl-1-(phenylsulfonyl)piperazin-2-yl]ethyl}phenyl)-β-(tetrahydro-2H-pyran-4-yl)-L-phenylalaninamide], the pIC50 is 7.43.
As for `COC(=O)N[C@H](C(=O)Nc1cccc(F)c1CC[C@H]1CNC[C@@H](C)N1S(C)(=O)=O)[C@@H](c1ccc(F)cc1)C1CCOCC1` [Example 146, (βR)-4-fluoro-N-(3-fluoro-2-{2-[(2S,6R)-6-methyl-1-(methylsulfonyl)piperazin-2-yl]ethyl}phenyl)-Nα-(methoxycarbonyl)-β-(tetrahydro-2H-pyran-4-yl)-L-phenylalaninamide], the pIC50 was 7.14.
`C[C@@H]1CNC[C@H](CCc2c(F)cncc2NC(=O)[C@@H](N)[C@@H](c2ccc(F)cc2)c2cc(F)cc(F)c2)N1S(=O)(=O)c1ccc(OC(F)(F)F)cc1` [Example 227, (βS)-β-(3,5-difluorophenyl)-4-fluoro-N-(5-fluoro-4-{2-[(2S,6R)-6-methyl-1-{[4-(trifluoromethoxy)phenyl]sulfonyl}piperazin-2-yl]ethyl}pyridin-3-yl)-L-phenylalaninamide]: the pIC50 was 7.64.
As for `N[C@H](C(=O)Nc1cncc(F)c1CC[C@H]1CNCCN1S(=O)(=O)CC1CC1)[C@@H](c1ccc(F)cc1)c1cc(F)cc(F)c1` [Example 28, (βS)-N-[4-(2-{(2S)-1-[(cyclopropylmethyl)sulfonyl]piperazin-2-yl}ethyl)-5-fluoropyridin-3-yl]-3,5-difluoro-β-(4-fluorophenyl)-L-phenylalaninamide], the pIC50 was 7.68.
As for `COC(=O)N[C@H](C(=O)Nc1cccc(F)c1CC[C@H]1CNC[C@H](C)N1S(C)(=O)=O)C(c1cccc(F)c1)c1cccc(F)c1` [Example 171, 3-fluoro-N-(3-fluoro-2-{2-[(2S,6S)-6-methyl-1-(methylsulfonyl)piperazin-2-yl]ethyl}phenyl)-β-(3-fluorophenyl)-Nα-(methoxycarbonyl)-L-phenylalaninamide], the pIC50 is 7.59.
For the molecule `COc1ccc(S(=O)(=O)N2[C@@H](CCc3c(F)cccc3NC(=O)[C@@H](N)[C@H](c3cccc(F)c3)c3cccc(Cl)c3)CNC[C@@H]2C)cc1` [Example 162, (βR)-3-chloro-N-[3-fluoro-2-(2-{(2S,6S)-1-[(4-methoxyphenyl)sulfonyl]-6-methylpiperazin-2-yl}ethyl)phenyl]-β-(3-fluorophenyl)-L-phenylalaninamide], the pIC50 is 7.66.
On to `COC(=O)N[C@H](C(=O)Nc1cccc(F)c1CC[C@H]1CNC[C@H](C)N1S(=O)(=O)c1ccccc1)[C@@H](Cc1ccc(F)cc1)c1ccc(Cl)cc1` [Example 194, (βS)-4-chloro-β-(4-fluorobenzyl)-N-(3-fluoro-2-{2-[(2S,6S)-6-methyl-1-(phenylsulfonyl)piperazin-2-yl]ethyl}phenyl)-Nα-(methoxycarbonyl)-L-phenylalaninamide], for which the pIC50 is 7.47.
For the molecule `COC(=O)N[C@H](C(=O)Nc1cncc(F)c1CC[C@H]1CNCCN1S(C)(=O)=O)[C@@H](c1ccc(F)cc1)c1cc(F)cc(F)c1` [Example 48, methyl ((1S,2S)-1-(3,5-difluorophenyl)-3-((5-fluoro-4-(2-((S)-1-(methylsulfonyl)piperazin-2-yl)ethyl)pyridin-3-yl)amino)-1-(4-fluorophenyl)-3-oxopropan-2-yl)carbamate], the pIC50 is 7.18.
Consider `C[C@@H]1CNC[C@H](CCc2c(F)cccc2NC(=O)[C@@H](N)[C@@H](c2ccc(Cl)cc2)C2CCOCC2)N1S(=O)(=O)c1ccccc1` [Example 116, (βR)-4-chloro-N-(3-fluoro-2-{2-[(2S,6R)-6-methyl-1-(phenylsulfonyl)piperazin-2-yl]ethyl}phenyl)-β-(tetrahydro-2H-pyran-4-yl)-L-phenylalaninamide], for which the pIC50 is 7.62.
With `O=C(C[C@@H](c1ccc(F)cc1)c1cc(F)cc(F)c1)Nc1cncc(F)c1CC[C@H]1CNCCN1S(=O)(=O)CC1CC1` [Example 302, (3S)-N-[4-(2-{(2S)-1-[(cyclopropylmethyl)sul-fonyl]piperazin-2-yl}ethyl)-5-fluoropyridin-3-yl]-3-(3,5-difluorophenyl)-3-(4-fluorophenyl)propanamide], the pIC50 is 7.62.
